Laboratory results: patent publication US20190388381A1, “METHODS OF INHIBITING CISD PROTEIN-PLP COMPLEX FORMATION” (priority 2018, published 2019)
Entries after “also recorded” stand apart in the source; their conditions may differ. Blank lines part the entries; values can stand above or below the molecule they belong to.

What was measured:
PLP⋅mitoNEET complex = biological target: T1, PLP⋅mitoNEET complex (Homo sapiens, UniProt Q9NZ45); experiment: Reaction of candidate amino acid substrates with the PLP⋅mitoNEET complex, followed by spectrophotometry; assay type: biochemical; conditions: internal aldimine at λ=410 nm, signal at λ=330 nm, over 5000 sec
T1 sequence (Q9NZ45 33-108 limits assumed): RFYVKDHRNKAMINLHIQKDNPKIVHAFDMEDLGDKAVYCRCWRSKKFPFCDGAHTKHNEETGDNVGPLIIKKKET
Text: After PLP binding to the protein, the next step in many PLP-catalyzed enzymatic reactions is the formation of an external aldimine with one of several amino acid substrate such as cysteine, serine, alanine, or aspartate. Subsequently, an amazing diversity of chemistry can occur using this versatile coenzyme including transamination, racemization, and α,β-elimination. L-cysteine was selected as a first candidate substrate considering the previously shown reactivity of mitoNEET cysteine residues in the formation of mixed disulfide bonds. L-cysteine (0.5 mM) was added to the PLP⋅mitoNEET complex and the reaction was followed by spectrophotometry over 5000 sec.

mitoNEET [1] = biological target: T2, mitoNEET (Homo sapiens, UniProt Q9NZ45); experiment: Competitive spectrophotometric assay of mitoNEET⋅PLP complex formation; assay type: biochemical; conditions: for Effect on mitoNEET⋅PLP complex formation: signal at λ=380 nm (unbound PLP) with increasing compound concentration
T2 sequence (Q9NZ45 33-108 limits assumed): T1 sequence (Q9NZ45 33-108 limits assumed)

mitoNEET [2] = biological target: T2, mitoNEET; experiment: Thermal shift analysis (SYPRO Orange) of mitoNEET; assay type: binding; conditions: changing concentrations of nucleotide
mitoNEET [3] = biological target: T3, mitoNEET (Homo sapiens, UniProt Q9NZ45); experiment: Proteomic analysis of mitoNEET lysine residues modified by PLP; assay type: biochemical; conditions: 2.0 molar equivalents of PLP, 20 minutes, PBS pH 7.5
T3 construct: Considering the presence of ten lysine residues in the soluble portion of mitoNEET
T3 sequence (Q9NZ45 32-108 limits assumed): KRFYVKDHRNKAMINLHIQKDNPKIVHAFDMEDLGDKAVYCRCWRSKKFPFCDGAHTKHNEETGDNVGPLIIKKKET
Description: Considering the presence of ten lysine residues in the soluble portion of mitoNEET, non-specific binding of PLP was a concern (PDB code 3EW0). Therefore, mitoNEET was treated with 2.0 molar equivalents of PLP over 20 minutes in phosphate buffered saline (PBS) at pH 7.5 and the reacted protein was analyzed by proteomics. […] Next, the product(s) were degraded by tryptic digest, separated by liquid chromatography, analyzed by tandem mass spectrometry, and the data deconvoluted by proteomic analysis (courtesy of Indiana University Medical School Proteomics Core).

mitoNEET [4] = biological target: T2, mitoNEET; experiment: Spectroscopic kinetics of modification of mitoNEET by PLP; assay type: biochemical; conditions: in contrast to PLP; data not shown
Text: The initial discovery was made that CISD proteins bind PLP at a specific lysine residue that is in close proximity to the [2Fe-2S] cluster. PLP modifies the active site lysine residue of PLP-dependent enzymes forming the internal aldimine. In mitoNEET, PLP selectively modifies Lys55. While Lys55 was hypothesized to play a role in the reduction potential and stability of the [2Fe-2S] cluster in mitoNEET, its role as the binding site of PLP is novel to this work. MitoNEET was previously not known or classified as a PLP-dependent enzyme. Referring to FIG. 2, the formation of the mitoNEET⋅PLP and NAF-1⋅PLP complexes can be followed spectroscopically by the accumulation of a signal at λ=435 nm which is consistent with the ketoenamine tautomer and the attenuation of the signal at λ=380 nm which signifies the free PLP molecule. Concurrently with the increase of signal at λ=435 nm, an increase at λ=280 nm is also observed, but the chemical species contributing to this signal is currently unknown. In contrast to PLP, no reactivity of mitoNEET towards the non-phosphorylated pyridoxal (data not shown) was observed. […] An analogous lysine (Lys78) on NAF-1 is the analogous site for that protein.

SMILES: Nc1ncnc2c1ncn2[C@@H]1O[C@H](COP(=O)(O)O)[C@@H](O)[C@H]1O [AMP, adenosine monophosphate]
Effect on mitoNEET⋅PLP complex formation (mitoNEET [1]): no binding at Lys55; also recorded: does not correspond with an increase in the signal at λ=380 nm
Effect on mitoNEET thermal stability (mitoNEET [2]): do not significantly affect the thermal shift profile

SMILES: N[C@@H](CS)C(=O)O [L-cysteine]
Reaction with the PLP⋅mitoNEET complex (PLP⋅mitoNEET complex): degradation of the internal aldimine

SMILES: Nc1ncnc2c1ncn2[C@@H]1O[C@H](COP(=O)(O)OP(=O)(O)O)[C@@H](O)[C@H]1O [ADP, adenosine diphosphate]
Effect on mitoNEET thermal stability (mitoNEET [2]): do not significantly affect the thermal shift profile

SMILES: NS(=O)(=O)c1cc(C(=O)O)c(NCc2ccco2)cc1Cl [furosemide]
Formation of mitoNEET⋅PLP complex after pre-treatment (mitoNEET [1]; signal at 435 nm, pre-treatment with compound): lack of formation of mitoNEET⋅PLP complex
Effect on mitoNEET⋅PLP complex formation (mitoNEET [1]): competitive binding; also recorded: prohibits the mitoNEET⋅PLP complex formation
Effect on mitoNEET⋅PLP complex formation (mitoNEET [1]; listed as Furosemide): block the formation of the mitoNEET⋅PLP complex in a concentration dependent manner

SMILES: N[C@H](CS)C(=O)O [D-cysteine]
Reaction with the PLP⋅mitoNEET complex (PLP⋅mitoNEET complex): also reacts with the PLP⋅mitoNEET complex (albeit at a slower rate)

SMILES: N[C@@H](COP(=O)(O)O)C(=O)O [L-phosphoserine]
Reaction with the PLP⋅mitoNEET complex (PLP⋅mitoNEET complex): did not react

Second part, the molecule after the results:

Reaction with the PLP⋅mitoNEET complex (PLP⋅mitoNEET complex): did not react
SMILES: N[C@@H](CO)C(=O)O [L-serine]

Percent Modified, lysine residue position 55 (mitoNEET [3]): 48.1%
Percent Modified, lysine residue position 68 (mitoNEET [3]): 7.6%
Percent Modified, lysine residue position 79 (mitoNEET [3]): 6.1%
Percent Modified, lysine residue position 89 (mitoNEET [3]): 2.5%
Percent Modified, lysine residue position 104 (mitoNEET [3]): 1.5%
SMILES: Cc1ncc(COP(=O)(O)O)c(C=O)c1O [PLP, pyridoxal-5′-phosphate]

Reactivity of mitoNEET towards compound (mitoNEET [4]): no reactivity
SMILES: Cc1ncc(CO)c(C=O)c1O [pyridoxal]
